# Results from patent publication US20170007709A1, “GLYCOAMINO ACID AND USE THEREOF” (AJINOMOTO CO., INC., priority 2014, published 2017).
# Assays:
# [1] = Animal evaluation: blood amino acid concentration after oral administration; format: in vivo; details: male SD rats fasted overnight
# Protocol: Leu, Val, Ile and glycoamino acid corresponding thereto (Leu-Glc, Val-Glc, Ile-Glc) were each dissolved or suspended in distilled water to a given dose and orally administered to male 13-week-old SD rats (Japan Charles River) that was fasted overnight. Blood samples were collected from the rat tail vein before administration and 15 min, 30 min, 60 min, 90 min, 120 min after administration and partly 180 min and 300 min after administration. After separation into plasma, protein elimination and ultrafiltration with 15% sulfosalicylic acid solution was performed. The filtrate was mixed with 0.02 mmol/L hydrochloric acid at 1:1, analyzed by an amino acid analyzer (JEOL Ltd.), and blood amino acid concentration was determined.
# [2] = Dissolution rate evaluation in water; format: physicochemical; details: 25 ml stirring water, inside temperature 32° C., n=1
# Protocol: Val, Ile, Leu or glycoamino acid corresponding thereto (Val-Glc, Ile-Glc, Leu-Glc) were each added to stirring water (25 ml, inside temperature 32° C.) in a hot-water bath at 35° C., and the dissolution rate was measured. As compared to Val, Ile and Leu, Val-Glc, Ile-Glc and Leu-Glc were dissolved 4-19 times faster in equal weight and 2-19 times faster in equimolar amount.
# [3] = Solubility evaluation in water at 25° C.; format: physicochemical; details: for solubility, amino acid-converted weight concentration / solubility, weight concentration: water, stirred for 2 days
# Protocol: The concentration was measured by HPLC. […] Similarly, the solubility of DOPA and DOPA-Glc was measured. […] Furthermore, the solubility of DOPA and DOPA-Glc was similarly measured using water (0.5 ml) in a thermostatic tank at 25° C. […] Therefore, the samples were diluted, and solubility was measured by HPLC.
# [4] = test system: pronase; experiment: Enzyme evaluation: liberation of leucine by pronase; format: in vitro ADME; details: 37° C., 30 min later
# Protocol: Leu-Glc (10 mg) was dissolved in water (1 ml), pronase (0.1% aqueous solution, 100 μl) was added, and the mixture was stirred in a hot-water bath at 37° C. The mixture was diluted 10-fold with 1% aqueous phosphoric acid solution, and analyzed by HPLC.
# HPLC analysis conditions were as described below.
# column: […] MG (4.6×250 mm, 5 μm) column temperature: 40° C. mobile phase: A: 100 mM KH2PO4, 5 mM sodium 1-octanesulfonate (pH 2.2) B: acetonitrile eluent: A/B=9/1 isocratic flow rate: 1.5 ml/min detection: photodiode array detector measurement wavelength 210 nm injection volume: 10 μL
smiles,measurement,setting,value
"CC[C@H](C)[C@H](N)C(=O)N[C@@H]1O[C@H](CO)[C@@H](O)[C@H](O)[C@H]1O [Ile-Glc, N-(L-isoleucyl)-β-D-glucopyranosylamine]",blood Ile concentration,[1],increased
same,"dissolution rate, glycoamino acid (XXX-Glc)",[2]; equal weight (Table 3),15 s
same,"dissolution rate, glycoamino acid (XXX-Glc)",[2]; equimolar quantity (Table 2),15 s
same,"solubility, amino acid-converted weight concentration",[3]; HPLC,14.7 g/100 g water
same,"solubility, weight concentration",[3]; HPLC,32.8 g/100 g water
"CC(C)C[C@H](N)C(=O)O [Leu, L-leucine, reference compound]","dissolution rate, amino acid (XXX)",[2]; equal weight (Table 3),(330 sec)
same,"dissolution rate, amino acid (XXX)",[2]; equimolar quantity (Table 2),(191 sec)
same,"solubility, amino acid-converted weight concentration",[3]; HPLC,2.4 g/100 g water
same,"solubility, weight concentration",[3]; HPLC,2.4 g/100 g water
"CC(C)C[C@H](N)C(=O)N[C@@H]1O[C@H](CO)[C@@H](O)[C@H](O)[C@H]1O [Leu-Glc, N-(L-leucyl)-β-D-glucopyranosylamine]",blood Leu concentration,[1],increased
same,"dissolution rate, glycoamino acid (XXX-Glc)",[2]; equal weight (Table 3),21 s
same,"dissolution rate, glycoamino acid (XXX-Glc)",[2]; equimolar quantity (Table 2),21 s
same,remaining Leu-Glc,[4],almost disappeared
same,"solubility, amino acid-converted weight concentration",[3]; HPLC,28.3 g/100 g water
same,"solubility, weight concentration",[3]; HPLC,63 g/100 g water
"N[C@@H](Cc1ccc(O)c(O)c1)C(=O)N[C@@H]1O[C@H](CO)[C@@H](O)[C@H](O)[C@H]1O [DOPA-Glc, N-(3,4-dihydroxy-L-phenylalanyl)-β-D-glucopyranosylamine]",solubility as compared to that of DOPA,"[3]; water 0.5 ml, samples diluted, HPLC",not less than 690 fold
same,solubility as compared to the corresponding amino acid,[3]; water 1 ml,not less than 135 times
same,weight concentration at which still dissolved,[3]; water 1 ml,≥ 93.8 g/100 g water
same,"solubility, amino acid-converted weight concentration",[3]; HPLC,>215 g/100 g water
same,"solubility, weight concentration",[3]; HPLC,>392 g/100 g water
"CC[C@H](C)[C@H](N)C(=O)O [Ile, L-isoleucine, reference compound]","dissolution rate, amino acid (XXX)",[2]; equal weight (Table 3),(285 sec)
same,"dissolution rate, amino acid (XXX)",[2]; equimolar quantity (Table 2),(280 sec)
same,"solubility, amino acid-converted weight concentration",[3]; HPLC,4.1 g/100 g water
same,"solubility, weight concentration",[3]; HPLC,4.1 g/100 g water
"CC(C)[C@H](N)C(=O)O [Val, L-valine, reference compound]","dissolution rate, amino acid (XXX)",[2]; equal weight (Table 3),(139 sec)
same,"dissolution rate, amino acid (XXX)",[2]; equimolar quantity (Table 2),(80 sec)
same,"solubility, amino acid-converted weight concentration",[3]; HPLC,5.8 g/100 g water
same,"solubility, weight concentration",[3]; HPLC,5.8 g/100 g water
"CC(C)[C@H](N)C(=O)N[C@@H]1O[C@H](CO)[C@@H](O)[C@H](O)[C@H]1O [Val-Glc, N-(L-valyl)-β-D-glucopyranosylamine]",blood Val concentration,[1],increased
same,"dissolution rate, glycoamino acid (XXX-Glc)",[2]; equal weight (Table 3),33 s
same,"dissolution rate, glycoamino acid (XXX-Glc)",[2]; equimolar quantity (Table 2),33 s
same,"solubility, amino acid-converted weight concentration",[3]; HPLC,14.1 g/100 g water
same,"solubility, weight concentration",[3]; HPLC,33.5 g/100 g water
"N[C@@H](Cc1ccc(O)cc1)C(=O)N[C@@H]1O[C@H](CO)[C@@H](O)[C@H](O)[C@H]1O [Tyr-Glc, N-(L-tyrosyl)-β-D-glucopyranosylamine]",solubility as compared to the corresponding amino acid,[3]; water 1 ml,178 times
same,"solubility, amino acid-converted weight concentration",[3]; HPLC,8.92 g/100 g water
same,"solubility, weight concentration",[3]; HPLC,16.8 g/100 g water
"N[C@@H](Cc1ccc(O)c(O)c1)C(=O)O [DOPA, 3,4-dihydroxy-L-phenylalanine, reference compound]","solubility, amino acid-converted weight concentration",[3]; HPLC,0.31 g/100 g water
same,"solubility, weight concentration",[3]; HPLC,0.31 g/100 g water
